{"source": "patent US20150315179A1", "about": "“COMPOUNDS AND METHODS OF TREATING NEUROLOGICAL DISORDERS” (Torrey Pines Institute For Molecular Studies, priority 2014, published 2015)", "key": {"[1]": {"tested_on": "sAPPα in supernatants of 7WD10 cells", "assay": "Western blot sAPPα release assay, 7WD10 cells", "type": "cell-based", "method": "(2). To ascertain that hits identified as a result of AlphaLISA assay are not due to artifacts of the detection system, the sAPPα levels were measured by Western blots as a secondary assay downstream of primary HTS to confirm hits or discard artifacts of the AlphaLISA assay. The assay was performed using a range of concentrations of hit compounds (10-5,000 nM). A hit compound named thiazole piperazine #244 (THPI-244) and THPI-326 induced dose-dependent increase of sAPPα in supernatants of 7WD10 cells (FIG. 1.3). […] Since compound THPI-244 increased sAPPα levels more than THPI-326, we focused on THPI-244 for further validation.\nWestern blot sAPPα release assay. 7WD10 cells were grown in 6-well plates and treated with test compounds and SAHA (vorinostat) at several concentrations in duplicate wells. After 24 h of drug exposure, the conditioned media (CM) was collected, centrifuged to remove cell debris and subjected to SDS-PAGE electrophoresis. sAPPα (6E10, mouse IgG from IBL America ltd) was detected using indicated antibody. To detect APP-FL holoprotein and C-terminal fragments (CTFs, CT15 antibody), the cells were lysed using lysis buffer (1% NP40) with complete protease inhibitor mix (Sigma) supplemented with sodium vanadate and microcystine. Samples were subjected to SDS-PAGE, transferred and immunoblotted with indicated antibodies and detected by enhanced chemiluminescence method. Quantification of Western blot signals was done using ImageJ software."}, "[2]": {"assay": "Brain levels after i.p. injection (LC-MS)", "type": "in vivo, mouse", "method": "(3). Since blood brain barrier (BBB) is the main obstacle for drug development for any CNS disorders, we first wanted to verify whether compound THPI-244 enters the brain. We followed protocols exactly as published previously from our laboratory (Hayes, C D et al., 2013, BMC Med. 26, 11.81). […] We generated a standard graph (FIG. 1.4 (middle)) to be used in the quantitation of THPI-244 in the brain after intraperitoneal (i.p.) injections at 0.2 mg/kg body weight."}, "TrkA": {"tested_on": "TrkA", "assay": "Mouse brain lysate immunoblot, TrkA", "type": "in vivo", "conditions": "i.p. 100 mg/kg for 5 days, brain lysates", "method": "FIGS. 9.2A and B illustrate that THPI-244 increases TrkA and sAPPα in the mouse brain. FIG. 9.2A illustrates that THPI-244 was administered to mice by i.p. injections at 100 mg/kg body weight for 5 days and the brain lysates were subjected to immunoblots. Specific antibodies were used to detect TrkA and sAPPα. […] Data are mean±SEM, n=3*, p<0.05, ***, p<0.001."}, "BBB of THPI-244 analogs": {"assay": "BBB of THPI-244 analogs", "description": "The following table illustrates Chemical structures and properties of THPI-244 analogs selected out of 37 analogs, and each have significant sAPPα increasing activity. Toxicity is the minimum dose for toxicity."}, "[3]": {"conditions": "i.p. 0.2 mg/kg body weight, mouse"}}}
{"smiles": "O=C(Cc1ccccc1)N[C@H](CNc1nc(CN2CCN(C(=O)Cc3ccccc3)CC2)cs1)c1ccccc1", "note": "[THPI-244]", "values": [{"measurement": "levels of APP-FL", "setting": "[1]; CHO cells, Western blot", "value": "no change"}, {"measurement": "increase of sAPPα over untreated control cells", "setting": "[1]; as low as 10 nM, 7WD10 supernatants", "value": 2, "unit": "fold"}, {"measurement": "amount remaining in the brain at 240 min", "setting": "[2]; [3]", "value": "negligible amount"}, {"measurement": "time to maximum levels in the brain", "setting": "[2]; [3]", "value": "≤ 5", "unit": "min"}, {"measurement": "blood-brain barrier passage", "setting": "[2]; i.p. administration, mouse brain", "value": "passes through the blood-brain barrier"}, {"measurement": "increase of TrkA", "setting": "TrkA", "value": 78, "unit": "%"}, {"measurement": "% BBB", "setting": "BBB of THPI-244 analogs", "value": 0.1, "unit": "%"}]}
